Results on 86 compounds are retold here after ChEMBL document CHEMBL1795312, “Insights into the structural requirements of farnesyltransferase inhibitors as potential anti-tumor agents based on 3D-QSAR CoMFA and CoMSIA models” (Eur J Med Chem, 2008).

The test is described as follows: Inhibition of farnesyltransferase.

SMILES strings stand for the structures.

Usually pIC50 stands for the IC50 on a negative log10 scale, so that one unit is a factor of ten. On to `N#Cc1ccc(Cn2cncc2CN[C@@H]2CCN(c3ccccc3)C2=O)cc1`, for which the negative-log IC50 (pIC50) stood at 6.69.
Compound `N#Cc1ccc(Cn2cncc2CCN[C@@H]2CCN(c3ccccc3)C2=O)cc1` yielded a negative logarithm of the IC50 (pIC50) of 6.92.
Next, `N#Cc1ccc(Cn2cncc2CCN[C@H]2CCN(CCc3ccccc3)C2=O)cc1`: 6.61; `N#Cc1ccc(Cn2cncc2CNC2CCN(C(=O)c3cncc(Br)c3)C2=O)cc1` (stereo unspecified): 7.37.
The result for `N#Cc1ccc(Cn2cncc2CNC2CCN(c3ccccc3Cl)C2=O)cc1` (stereo unspecified) reads 8.82; that for `N#Cc1ccc(Cn2cncc2CNC2CCN(c3cccc(Cl)c3)C2=O)cc1` (stereo unspecified), 8.08; that for `N#Cc1ccc(Cn2cncc2CNC2CCN(c3ccc(Cl)cc3)C2=O)cc1` (stereo unspecified), 7.68.
In the case of `N#Cc1ccc(Cn2cncc2CNC2CCN(Cc3ccccc3Cl)C2=O)cc1` (stereo unspecified), the negative-log IC50 (pIC50) stood at 8.28.
The result for `N#Cc1ccc(Cn2cncc2CNC2CCN(Cc3ccc(Cl)cc3)C2=O)cc1` (stereo unspecified) reads 7.6.
The result for `N#Cc1ccc(Cn2cncc2CNC2CCN(c3cccnc3)C2=O)cc1` (stereo unspecified) reads 7.07; that for `N#Cc1ccc(Cn2cncc2CNC2CCN(c3ccncc3)C2=O)cc1` (stereo unspecified), 7.37; that for `N#Cc1ccc(Cn2cncc2CNC2CCN(C(=O)c3ccccc3)C2=O)cc1` (stereo unspecified), 6.96.
The result for `N#Cc1ccc(Cn2cncc2CNC2CCN(C(=O)c3cccc4ccccc34)C2=O)cc1` (stereo unspecified) reads 7.96; that for `N#Cc1ccc(Cn2cncc2CNC2CCN(C(=O)c3ccccc3Cl)C2=O)cc1` (stereo unspecified), 7.19.
Turning to `N#Cc1ccc(Cn2cncc2CNC2CCN(C(=O)c3cccc(Cl)c3)C2=O)cc1` (stereo unspecified), the pIC50 came to 7.57.
The result for `N#Cc1ccc(Cn2cncc2CNC2CCN(C(=O)c3ccc(Cl)cc3)C2=O)cc1` (stereo unspecified) reads 7.05; that for `N#Cc1ccc(Cn2cncc2CNC2CCN(C(=O)c3cccnc3)C2=O)cc1` (stereo unspecified), 5.7.
The result for `N#Cc1ccc(Cn2cncc2CNC2CCN(C(=O)c3cccnc3N)C2=O)cc1` (stereo unspecified) reads 6.01; that for `N#Cc1ccc(Cn2cncc2CNC2CCN(C(=O)c3cccnc3O)C2=O)cc1` (stereo unspecified), 5.17; that for `COc1ncccc1C(=O)N1CCC(NCc2cncn2Cc2ccc(C#N)cc2)C1=O` (stereo unspecified), 6.82.
The result for `N#Cc1ccc(Cn2cncc2CNC2CCN(C(=O)c3cccnc3S)C2=O)cc1` (stereo unspecified) reads 5.54; that for `CSc1ncccc1C(=O)N1CCC(NCc2cncn2Cc2ccc(C#N)cc2)C1=O` (stereo unspecified), 7.08.
`CCSc1ncccc1C(=O)N1CCC(NCc2cncn2Cc2ccc(C#N)cc2)C1=O` (stereo unspecified) displayed a pIC50 of 8.32.
Next, `CCCN(Cc1cncn1Cc1ccc(C#N)cc1)C1CCN(Cc2ccccc2)C1=O` (stereo unspecified): 7.23; `N#Cc1ccc(Cn2cncc2CN(Cc2ccccc2)C2CCN(Cc3ccccc3)C2=O)cc1` (stereo unspecified): 7.17.
Next, `N#Cc1ccc(Cn2cncc2CN(CCc2ccccc2)C2CCN(Cc3ccccc3)C2=O)cc1` (stereo unspecified): 7.29.
The result for `N#Cc1ccc(Cn2cncc2CN(CCCCc2ccccc2)C2CCN(Cc3ccccc3)C2=O)cc1` (stereo unspecified) reads 7.38; that for `N#Cc1ccc(Cn2cncc2CN(c2ccccn2)C2CCN(Cc3ccccc3)C2=O)cc1` (stereo unspecified), 7.28.
For the compound `CC(C)(C)OC(=O)NCCCN(Cc1cncn1Cc1ccc(C#N)cc1)C1CCN(Cc2cccc(Cl)c2)C1=O` (stereo unspecified), the negative-log IC50 (pIC50) is on record as 8.89.
Next, `N#Cc1ccc(Cn2cncc2CN(CCCN)C2CCN(Cc3cccc(Cl)c3)C2=O)cc1` (stereo unspecified): 8.12; `Cc1ccccc1-c1cc(C(OCc2nc(-c3ccc(Cl)cc3)cs2)c2cncn2C)ccc1C#N` (stereo unspecified): 7.53.
The result for `COC(=O)c1ccc(COC(c2ccc(C#N)c(-c3ccccc3C(F)(F)F)c2)c2cncn2C)nc1` (stereo unspecified) reads 8.04; that for `Cn1cncc1C(OCc1ccc(C#N)c(N2CCOCC2)n1)c1ccc(C#N)c(-c2ccccc2C(F)(F)F)c1` (stereo unspecified), 8.88.
The result for `Cc1ccccc1-c1cc(C(OCc2ccc(OC(F)(F)F)cc2)c2cncn2C)ccc1C#N` (stereo unspecified) reads 7.79.
`Cc1ccccc1-c1cc(C(OCc2ccc(C(C)C)cc2)c2cncn2C)ccc1C#N` (stereo unspecified): the negative logarithm of the IC50 (pIC50) is reported as 7.29.
Turning to `Cc1ccccc1-c1cc(C(OCc2cccc(I)c2)c2cncn2C)ccc1C#N` (stereo unspecified), the pIC50 was 7.69.
In turn, `Cc1ccc(COC(c2ccc(C#N)c(-c3ccccc3C)c2)c2cncn2C)cc1` (stereo unspecified) came in with a pIC50 of 7.26.
In the case of `Cc1ccccc1-c1cc(C(OCc2cccc(OC(F)(F)F)c2)c2cncn2C)ccc1C#N` (stereo unspecified), the pIC50 is 8.08.
Next, `Cc1ccccc1-c1cc(C(OCc2ccc(C(F)(F)F)cc2)c2cncn2C)ccc1C#N` (stereo unspecified): 7.92.
The result for `Cc1ccccc1-c1cc(C(OCc2ccc(C(C)(C)C)cc2)c2cncn2C)ccc1C#N` (stereo unspecified) reads 7.06.
Next, `COC(=O)c1cccc(COC(c2ccc(C#N)c(-c3ccccc3C)c2)c2cncn2C)c1` (stereo unspecified): 7.21; `Cn1cncc1C(OCc1ccc(C#N)cc1)c1ccc(C#N)c(-c2ccccc2C=O)c1` (stereo unspecified): 8.72.
`Cc1cccc(COC(c2ccc(C#N)c(-c3ccccc3C)c2)c2cncn2C)c1` (stereo unspecified) came in with a pIC50 of 7.21.
The compound `Cc1ccccc1-c1cc(C(OCc2cccc3ccccc23)c2cncn2C)ccc1C#N` (stereo unspecified) had a negative logarithm of the IC50 (pIC50) of 7.76.
Regarding `Cc1ccccc1-c1cc(C(OCc2cccc(Cl)c2)c2cncn2C)ccc1C#N` (stereo unspecified), the pIC50 came out at 7.72.
As to `Cc1cccc(-c2cc(C(OCc3ccc(C#N)cc3)c3cncn3C)ccc2C#N)c1C` (stereo unspecified), the negative logarithm of the IC50 (pIC50) amounted to 8.67.
The result for `Cn1cncc1C(OCc1ccc(C(F)(F)F)c(F)c1)c1ccc(C#N)c(-c2ccccc2C(F)(F)F)c1` (stereo unspecified) reads 8.21.
Next, `Cc1ccccc1-c1cc(C(OCc2c(Cl)cccc2Cl)c2cncn2C)ccc1C#N` (stereo unspecified): 7.09; `Cc1ccccc1-c1cc(C(OCc2ccc(C#N)cc2)c2cncn2C)ccc1C#N` (stereo unspecified): 8.39; `Cn1cncc1C(OCc1ccc(Cl)c(Cl)c1)c1ccc(C#N)c(-c2ccccc2C(F)(F)F)c1` (stereo unspecified): 8.76.
For `Cc1ccccc1-c1cc(C(OCc2ccc(Br)cc2)c2cncn2C)ccc1C#N` (stereo unspecified), the pIC50 is on record as 7.92.
Next, `Cn1cncc1C(OCc1ccc(C#N)cc1)c1ccc(C#N)c(-c2cccc(Cl)c2Cl)c1` (stereo unspecified): 8.82.
The result for `Cc1ccccc1-c1cc(C(OCc2ccc(I)cc2)c2cncn2C)ccc1C#N` (stereo unspecified) reads 7.88; that for `Cc1ccccc1-c1cc(C(OCc2ccc(-c3ccccc3)cc2)c2cncn2C)ccc1C#N` (stereo unspecified), 7.88.
Next, `Cn1cncc1C(OCc1ccc(C#N)c(N2CCC[C@@H]2C(=O)O)n1)c1ccc(C#N)c(-c2ccccc2C(F)(F)F)c1` (stereo partly specified): 8.44; `Cc1ccccc1-c1cc(C(OCc2ccc([N+](=O)[O-])cc2)c2cncn2C)ccc1C#N` (stereo unspecified): 8.12; `Cn1cncc1C(OCc1ccc(C#N)cc1)c1ccc(C#N)c(-c2ccccc2CO)c1` (stereo unspecified): 8.25.
With `Cc1ccccc1-c1cc(C(OCc2cccc3cccnc23)c2cncn2C)ccc1C#N` (stereo unspecified), the pIC50 came out at 7.22.
Compound `Cn1cncc1C(OCc1ccc(C#N)c(N2CCCC(O)C2)n1)c1ccc(C#N)c(-c2ccccc2C(F)(F)F)c1` (stereo unspecified) gave a pIC50 of 8.88.
Next, `Cn1cncc1C(OCc1ccc(C#N)c(N2CCC(O)C2)n1)c1ccc(C#N)c(-c2ccccc2C(F)(F)F)c1` (stereo unspecified): 8.45; `Cc1ccccc1-c1cc(C(OCc2ccc(Cl)cc2)c2cncn2C)ccc1C#N` (stereo unspecified): 7.95.
In the case of `Cc1ccccc1-c1cc(C(OCc2ccccc2)c2cncn2C)ccc1C#N` (stereo unspecified), the pIC50 is reported as 7.07.
The result for `N#Cc1ccc(Cn2cncc2CCN[C@@H]2CCN(CCc3ccccc3)C2=O)cc1` reads 6.42; that for `COc1ccc(COC(c2ccc(C#N)c(-c3ccccc3C)c2)c2cncn2C)cc1` (stereo unspecified), 7.22.
The result for `Cc1ccccc1-c1cc(C(OCc2ccccc2C#N)c2cncn2C)ccc1C#N` (stereo unspecified) reads 7.2; that for `CN1CCN(c2nc(COC(c3ccc(C#N)c(-c4ccccc4C(F)(F)F)c3)c3cncn3C)ccc2C#N)CC1` (stereo unspecified), 8.92.
Next, `Cc1ccccc1-c1cc(C(OCc2ccccc2Cl)c2cncn2C)ccc1C#N` (stereo unspecified): 7.31; `Cc1ccccc1COC(c1ccc(C#N)c(-c2ccccc2C)c1)c1cncn1C` (stereo unspecified): 7.26.
As to `Cn1cncc1C(OCc1ccc(C#N)cc1)c1ccc(C#N)c(-c2ccccc2C(F)(F)F)c1` (stereo unspecified), the pIC50 is recorded as 9.09.
The result for `Cc1ccccc1-c1cc(C(OCc2cnc(Cl)c(Cl)c2)c2cncn2C)ccc1C#N` (stereo unspecified) reads 7.82; that for `Cn1cncc1C(OCc1ccc(F)c(C(F)(F)F)c1)c1ccc(C#N)c(-c2ccccc2C(F)(F)F)c1` (stereo unspecified), 8.38; that for `Cc1ccccc1-c1cc(C(OCc2cccc(Br)c2)c2cncn2C)ccc1C#N` (stereo unspecified), 7.88.
Next, `Cc1ccccc1-c1cc(C(OCc2cccc(F)c2)c2cncn2C)ccc1C#N` (stereo unspecified): 7.42; `Cc1ccccc1-c1cc(C(OCc2ccc(F)cc2)c2cncn2C)ccc1C#N` (stereo unspecified): 7.49.
Next, `Cc1ccccc1-c1cc(C(OCc2cc(Cl)cc(Cl)c2)c2cncn2C)ccc1C#N` (stereo unspecified): 7.72; `Cc1ccccc1-c1cc(C(OCc2cc(Cl)nc(Cl)c2)c2cncn2C)ccc1C#N` (stereo unspecified): 7.88; `Cc1ccccc1-c1cc(C(OCc2ccccc2[N+](=O)[O-])c2cncn2C)ccc1C#N` (stereo unspecified): 7.48.
In turn, `Cn1cncc1C(OCc1ccc(C#N)c(N2CCC[C@@H]2CO)n1)c1ccc(C#N)c(-c2ccccc2C(F)(F)F)c1` (stereo partly specified) returned a pIC50 of 8.69.
Next, `Cc1ccccc1-c1cc(C(OCc2ccc(Cl)c(Cl)c2)c2cncn2C)ccc1C#N` (stereo unspecified): 7.56; `Cn1cncc1C(OCc1ccc(C#N)cc1)c1ccc(C#N)c(-c2cccc3ccccc23)c1` (stereo unspecified): 9.69.
The result for `N#Cc1ccc(Cn2cncc2CCN[C@H]2CCN(c3ccccc3)C2=O)cc1` reads 6.55; that for `N#Cc1ccc(Cn2cncc2CN[C@H]2CCN(CCc3ccccc3)C2=O)cc1`, 6.63.
Next, `Cc1ccccc1-c1cc(C(OCc2ccccc2F)c2cncn2C)ccc1C#N` (stereo unspecified): 7.15.
The compound `N#Cc1ccc(Cn2cncc2CN[C@H]2CCN(c3ccccc3)C2=O)cc1` returned a pIC50 of 7.13.
For `N#Cc1ccc(Cn2cncc2CCN[C@@H]2CCN(Cc3ccccc3)C2=O)cc1`, the pIC50 is recorded as 6.6.
Compound `N#Cc1ccc(Cn2cncc2CCN[C@H]2CCN(Cc3ccccc3)C2=O)cc1` returned a negative logarithm of the IC50 (pIC50) of 6.56.
